Results published in ChEMBL document CHEMBL1201862, “PubChem BioAssay data set” (2004).
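Briefly, cells in 96-well plates were exposed to five compound concentrations for 48 h, and endpoints were estimated by linear interpolation. GI50: concentration for 50% inhibition of growth.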 The source made the active and inactive calls. No stated cut-off is given here; in the data, active = GI50 up to about 1.1 µM and inactive = higher.

Assays:
Experiment in all cases: inhibition of tumour cell growth, NCI panel, 48 h
NCI-H23 = system: NCI-H23
OVCAR-8 = system: OVCAR-8
NCI-H460 = system: NCI-H460
OVCAR-4 = system: OVCAR-4
NCI-H522 = system: NCI-H522
A549 = system: A549
SF-295 = system: SF-295
BT-549 = system: BT-549
HCT-116 = system: HCT-116
HCT-15 = system: HCT-15
CAKI-1 = system: CAKI-1
EKVX = system: EKVX
HT-29 = system: HT-29
NCI-H226 = system: NCI-H226
MCF7 = system: MCF7
SK-MEL-28 = system: SK-MEL-28
SN12C = system: SN12C
HL-60 = system: HL-60
K562 = system: K562
T47D = system: T47D

SMILES | GI50 (NCI-H23) | GI50 (OVCAR-8) | GI50 (NCI-H460) | GI50 (OVCAR-4) | GI50 (NCI-H522) | GI50 (A549) | GI50 (SF-295) | GI50 (BT-549) | GI50 (HCT-116) | GI50 (HCT-15) [µM] | GI50 (CAKI-1) | GI50 (EKVX) | GI50 (HT-29) | GI50 (NCI-H226) | GI50 (MCF7) | GI50 (SK-MEL-28) | GI50 (SN12C) | GI50 (HL-60) | GI50 (K562) | GI50 (T47D)
CCCNC(=S)N/C=C1/C(=O)Oc2ccccc2C1=O | > 100 µM (inactive) | > 100 µM (inactive) | > 100 µM (inactive) | > 100 µM (inactive) | > 100 µM (inactive) | > 100 µM (inactive) | > 100 µM (inactive) | > 100 µM (inactive) | > 100 µM (inactive) | > 100 | > 100 µM (inactive) | > 100 µM (inactive) | > 100 µM (inactive) | > 100 µM (inactive) | > 100 µM (inactive) | > 100 µM (inactive) | > 100 µM (inactive) | 13.6 µM (inactive) |  | 
CNC1c2ccccc2C(=O)c2cc3c(cc21)OCCOCCOCCOCCO3 (stereo unspecified) |  | > 100 µM (inactive) | > 100 µM (inactive) | > 100 µM (inactive) | 34.1 µM (inactive) | > 100 µM (inactive) | > 100 µM (inactive) |  | > 100 µM (inactive) | 39.9 |  | > 100 µM (inactive) | 54 µM (inactive) |  | 55.5 µM (inactive) | > 100 µM (inactive) | 99.1 µM (inactive) | 27.4 µM (inactive) | 45.1 µM (inactive) | > 100 µM (inactive)
C[C@@H]1[C@@H](c2ccccc2)O[B-](c2ccccc2)(c2ccccc2)[N+]1(C)C | 90.6 µM (inactive) | 99.5 µM (inactive) | > 100 µM (inactive) | 56.4 µM (inactive) | 58.2 µM (inactive) | > 100 µM (inactive) | > 100 µM (inactive) | 43.6 µM (inactive) | 59.3 µM (inactive) | 58.7 | 48.3 µM (inactive) | > 100 µM (inactive) | > 100 µM (inactive) | 41 µM (inactive) |  | 58.3 µM (inactive) | > 100 µM (inactive) | 66.1 µM (inactive) | 33 µM (inactive) | 54.5 µM (inactive)
CC1(C)CC(=O)C2=C(C1)OC1=C(CC(C)(C)CC1=O)C2c1ccccc1[N+](=O)[O-] (stereo unspecified) | > 100 µM (inactive) |  | > 100 µM (inactive) | > 100 µM (inactive) | > 100 µM (inactive) | > 100 µM (inactive) | > 100 µM (inactive) |  | > 100 µM (inactive) | > 100 | > 100 µM (inactive) | > 100 µM (inactive) | > 100 µM (inactive) | > 100 µM (inactive) |  | > 100 µM (inactive) | > 100 µM (inactive) | > 100 µM (inactive) | > 100 µM (inactive) | > 100 µM (inactive)
CN(C)CN1CSC(=S)N(CN(C)C)C1 | > 100 µM (inactive) | > 100 µM (inactive) | 42.6 µM (inactive) | > 100 µM (inactive) | 42 µM (inactive) | > 100 µM (inactive) | > 100 µM (inactive) | > 100 µM (inactive) | > 100 µM (inactive) | > 100 | > 100 µM (inactive) | > 100 µM (inactive) | > 100 µM (inactive) | > 100 µM (inactive) |  | > 100 µM (inactive) | > 100 µM (inactive) |  | 44.5 µM (inactive) | > 100 µM (inactive)
COc1ccc(/C(C#N)=C/c2ccc(OC)c(OC)c2)cc1 | > 100 µM (inactive) | > 100 µM (inactive) | > 100 µM (inactive) | 69.8 µM (inactive) | > 100 µM (inactive) | > 100 µM (inactive) | > 100 µM (inactive) |  | > 100 µM (inactive) | 37.2 | > 100 µM (inactive) | > 100 µM (inactive) | > 100 µM (inactive) | > 100 µM (inactive) | > 100 µM (inactive) | > 100 µM (inactive) | > 100 µM (inactive) | > 100 µM (inactive) | > 100 µM (inactive) | 49.5 µM (inactive)
Oc1[nH]c(Nc2cc(Cl)cc(Cl)c2)nc2ncnc1-2 | > 75 µM (inactive) | > 75 µM (inactive) | > 75 µM (inactive) | > 75 µM (inactive) |  | > 75 µM (inactive) | > 75 µM (inactive) | > 75 µM (inactive) | > 75 µM (inactive) | > 75 | > 75 µM (inactive) | > 75 µM (inactive) | > 75 µM (inactive) | > 75 µM (inactive) | > 75 µM (inactive) |  | > 75 µM (inactive) |  | > 75 µM (inactive) | > 75 µM (inactive)
[O-][n+]1onc(-c2ccccc2)c1-c1no[n+]([O-])c1-c1c(-c2ccccc2)no[n+]1[O-] | 3.72 µM (inactive) | 24.1 µM (inactive) | 3.27 µM (inactive) | 2.94 µM (inactive) | 18.8 µM (inactive) | 23.1 µM (inactive) | 24.8 µM (inactive) |  | 3.3 µM (inactive) |  | 12.8 µM (inactive) | 37.2 µM (inactive) | 3.62 µM (inactive) | 15.2 µM (inactive) | 3.23 µM (inactive) | 33.7 µM (inactive) | 7.67 µM (inactive) | 2.43 µM (inactive) | 2.51 µM (inactive) | 
